Data as given in patent US8076487B2, “Pyridone derivative and herbicide” (Kumiai Chemical Industry Co., Ltd., priority 2006, dated 2011).

Columns and labels:
Assay type in all cases: in vivo
[1] = tested on: barnyardgrass (Echinochloa crus-galli (L.) P. Beauv. var. crus-galli); experiment: Test Example 2: herbicidal effect by soil application to upland field; details: soil surface spray, upland field soil, 1,000 g active ingredient per hectare, 21st day after application
How it was run: (§1)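 Seeds were sown in field soil, covered, and the soil surface sprayed with a water-diluted wettable powder at 1,000 g active ingredient per hectare in 1,000 L/ha. Plants grew in a greenhouse, and herbicidal effect was rated against a standard scale 21 days after application.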

[2] = tested on: slender amaranth (Amaranthus viridis L.); experiment: as above; details: soil surface spray, upland field soil, 1,000 g active ingredient per hectare, 21st day after application
How it was run: as §1

[3] = tested on: green foxtail (Setaria viridis (L.) P. Beauv.); experiment: as above; details: soil surface spray, upland field soil, 1,000 g active ingredient per hectare, 21st day after application
How it was run: as §1

[4] = tested on: velvetleaf (Abutilon theophrasti medicus); experiment: as above; details: soil surface spray, upland field soil, 1,000 g active ingredient per hectare, 21st day after application
How it was run: as §1

[5] = tested on: barnyardgrass (Echinochloa crus-galli (L.) P. Beauv. var. crus-galli); experiment: Test Example 3: herbicidal effect by application to upland field (foliage treatment); details: foliage treatment, plants grown two weeks, 1,000 g active ingredient per hectare, 14th day after application
How it was run: (§2)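 Upland foliage test in greenhouse pots of field soil: seedlings sprayed at two weeks post-sowing with 1,000 g/ha active ingredient (wettable powder, 1,000 L water/ha). Scored 14 d after application.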

[6] = tested on: slender amaranth (Amaranthus viridis L.); experiment: as above; details: foliage treatment, plants grown two weeks, 1,000 g active ingredient per hectare, 14th day after application
How it was run: as §2

[7] = tested on: green foxtail (Setaria viridis (L.) P. Beauv.); experiment: as above; details: foliage treatment, plants grown two weeks, 1,000 g active ingredient per hectare, 14th day after application
How it was run: as §2

[8] = tested on: velvetleaf (Abutilon theophrasti medicus); experiment: as above; details: foliage treatment, plants grown two weeks, 1,000 g active ingredient per hectare, 14th day after application
How it was run: as §2

[9] = tested on: Japanese bulrush (Scirpus juncoides Roxb.); experiment: Test Example 1: herbicidal effect by soil application to paddy field; details: paddy field soil application; active ingredient 1,000 g per 1 hectare; wettable powder added dropwise to water surface the day after sowing; examined on the 21st day after application
How it was run: (§3)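 Plants were sown in flooded (3 cm) paddy soil and evaluated for herbicidal effect 21 days after soil application in a greenhouse.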

[10] = tested on: early watergrass (Echinochloa oryzicola Vasing); experiment: as above; details: paddy field soil application; active ingredient 1,000 g per 1 hectare; wettable powder added dropwise to water surface the day after sowing; examined on the 21st day after application
How it was run: as §3

[11] = tested on: heartshape false pickerelweed (Monochoria vaginalis (Burm.f.) C.Presl); experiment: as above; details: paddy field soil application; active ingredient 1,000 g per 1 hectare; wettable powder added dropwise to water surface the day after sowing; examined on the 21st day after application
How it was run: as §3

Compound | herbicidal effect (index), Barnyardgrass [1] | herbicidal effect (index), Slender Amaranth [2] | herbicidal effect (index), Green Foxtail [3] | herbicidal effect (index), Velvetleaf [4] | herbicidal effect (index), Barnyardgrass [5] | herbicidal effect (index), Slender Amaranth [6] | herbicidal effect (index), Green Foxtail [7] | herbicidal effect (index), Velvetleaf [8] | herbicidal effect, Scirpus juncoides Roxb. [9] | herbicidal effect, Echinochloa oryzicola Vasing [10] | herbicidal effect, Monochoria vaginalis (Burm. f.) C. Presl [11]
O=C1CCCC(O)=C1C(=O)c1ccc(C(F)(F)F)n(CSC2CCCC2)c1=O [I-59] | 5 (90% or more of herbicidal effect and crop phytotoxicity) | 5 (90% or more of herbicidal effect and crop phytotoxicity) | 4 (70 to less than 90% of herbicidal effect and crop phytotoxicity) | 5 (90% or more of herbicidal effect and crop phytotoxicity) | 5 (90% or more of herbicidal effect and crop phytotoxicity) | 5 (90% or more of herbicidal effect and crop phytotoxicity) | 5 (90% or more of herbicidal effect and crop phytotoxicity) | 5 (90% or more of herbicidal effect and crop phytotoxicity) | 5 (90% or more of herbicidal effect and crop phytotoxicity) | 5 (90% or more of herbicidal effect and crop phytotoxicity) | 5 (90% or more of herbicidal effect and crop phytotoxicity)
O=C1CCCC(O)=C1C(=O)c1ccc(C(F)(F)F)n(CS(=O)(=O)C2CCCC2)c1=O [I-60] | 5 (90% or more of herbicidal effect and crop phytotoxicity) | 5 (90% or more of herbicidal effect and crop phytotoxicity) | 5 (90% or more of herbicidal effect and crop phytotoxicity) | 5 (90% or more of herbicidal effect and crop phytotoxicity) | 5 (90% or more of herbicidal effect and crop phytotoxicity) | 5 (90% or more of herbicidal effect and crop phytotoxicity) | 5 (90% or more of herbicidal effect and crop phytotoxicity) | 5 (90% or more of herbicidal effect and crop phytotoxicity) | 5 (90% or more of herbicidal effect and crop phytotoxicity) | 5 (90% or more of herbicidal effect and crop phytotoxicity) | 5 (90% or more of herbicidal effect and crop phytotoxicity)
C=CCSCn1c(C(F)(F)F)ccc(C(=O)C2=C(O)CCCC2=O)c1=O [I-63] | 5 (90% or more of herbicidal effect and crop phytotoxicity) | 5 (90% or more of herbicidal effect and crop phytotoxicity) | 4 (70 to less than 90% of herbicidal effect and crop phytotoxicity) | 5 (90% or more of herbicidal effect and crop phytotoxicity) | 5 (90% or more of herbicidal effect and crop phytotoxicity) | 5 (90% or more of herbicidal effect and crop phytotoxicity) | 5 (90% or more of herbicidal effect and crop phytotoxicity) | 5 (90% or more of herbicidal effect and crop phytotoxicity) | 5 (90% or more of herbicidal effect and crop phytotoxicity) | 5 (90% or more of herbicidal effect and crop phytotoxicity) | 5 (90% or more of herbicidal effect and crop phytotoxicity)
C[S+]([O-])CCn1c(C(F)(F)F)ccc(C(=O)C2=C(O)CCCC2=O)c1=O (stereo not drawn) [I-66] | 5 (90% or more of herbicidal effect and crop phytotoxicity) | 5 (90% or more of herbicidal effect and crop phytotoxicity) | 5 (90% or more of herbicidal effect and crop phytotoxicity) | 5 (90% or more of herbicidal effect and crop phytotoxicity) | 5 (90% or more of herbicidal effect and crop phytotoxicity) | 5 (90% or more of herbicidal effect and crop phytotoxicity) | 5 (90% or more of herbicidal effect and crop phytotoxicity) | 5 (90% or more of herbicidal effect and crop phytotoxicity) | 5 (90% or more of herbicidal effect and crop phytotoxicity) | 5 (90% or more of herbicidal effect and crop phytotoxicity) | 5 (90% or more of herbicidal effect and crop phytotoxicity)
CS(=O)(=O)CCn1c(C(F)(F)F)ccc(C(=O)C2=C(O)CCCC2=O)c1=O [I-67] | 5 (90% or more of herbicidal effect and crop phytotoxicity) | 5 (90% or more of herbicidal effect and crop phytotoxicity) | 5 (90% or more of herbicidal effect and crop phytotoxicity) | 5 (90% or more of herbicidal effect and crop phytotoxicity) | 5 (90% or more of herbicidal effect and crop phytotoxicity) | 5 (90% or more of herbicidal effect and crop phytotoxicity) | 5 (90% or more of herbicidal effect and crop phytotoxicity) | 5 (90% or more of herbicidal effect and crop phytotoxicity) | 5 (90% or more of herbicidal effect and crop phytotoxicity) | 5 (90% or more of herbicidal effect and crop phytotoxicity) | 5 (90% or more of herbicidal effect and crop phytotoxicity)
C[S+]([O-])CCCn1c(C(F)(F)F)ccc(C(=O)C2=C(O)CCCC2=O)c1=O (stereo not drawn) [I-70] | 5 (90% or more of herbicidal effect and crop phytotoxicity) | 5 (90% or more of herbicidal effect and crop phytotoxicity) | 5 (90% or more of herbicidal effect and crop phytotoxicity) | 5 (90% or more of herbicidal effect and crop phytotoxicity) | 5 (90% or more of herbicidal effect and crop phytotoxicity) | 5 (90% or more of herbicidal effect and crop phytotoxicity) | 5 (90% or more of herbicidal effect and crop phytotoxicity) | 5 (90% or more of herbicidal effect and crop phytotoxicity) | 5 (90% or more of herbicidal effect and crop phytotoxicity) | 5 (90% or more of herbicidal effect and crop phytotoxicity) | 5 (90% or more of herbicidal effect and crop phytotoxicity)
